The source of these data is patent US10010541B2, “Modulation of tissue transglutaminase activation in disease” (The Board of Trustees of the Leland Stanford Junior …, priority 2014, dated 2018).

SMILES strings stand for the structures.

In one experiment the target is T1, TG2 (Homo sapiens, UniProt P21980).
T1 sequence (P21980 1-687): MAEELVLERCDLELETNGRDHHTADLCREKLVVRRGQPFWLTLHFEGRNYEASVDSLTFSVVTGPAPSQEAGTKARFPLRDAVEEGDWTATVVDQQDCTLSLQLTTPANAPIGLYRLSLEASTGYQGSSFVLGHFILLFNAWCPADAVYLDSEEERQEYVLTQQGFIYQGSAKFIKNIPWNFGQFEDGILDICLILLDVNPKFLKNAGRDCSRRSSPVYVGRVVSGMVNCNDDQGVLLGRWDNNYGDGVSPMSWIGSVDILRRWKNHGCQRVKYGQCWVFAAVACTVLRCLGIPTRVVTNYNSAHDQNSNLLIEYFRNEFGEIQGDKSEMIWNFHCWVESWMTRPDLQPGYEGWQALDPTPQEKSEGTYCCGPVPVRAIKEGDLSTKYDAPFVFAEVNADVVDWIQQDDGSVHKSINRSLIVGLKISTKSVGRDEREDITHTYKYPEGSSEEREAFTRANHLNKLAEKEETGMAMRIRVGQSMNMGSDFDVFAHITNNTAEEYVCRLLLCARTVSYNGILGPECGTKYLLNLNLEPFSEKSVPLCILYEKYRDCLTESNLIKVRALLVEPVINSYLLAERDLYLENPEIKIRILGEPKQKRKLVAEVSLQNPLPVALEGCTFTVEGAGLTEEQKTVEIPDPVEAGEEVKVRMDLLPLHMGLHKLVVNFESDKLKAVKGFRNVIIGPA
The experiment in a line: glutamate dehydrogenase-coupled deamidation assay, substrate Cbz-Gln-Gly. Type of experiment: biochemical. Conditions: irreversible inhibition model, full progress curves.

The target of the next experiment is T2, TG1 (Homo sapiens, UniProt P22735).
T2 sequence (P22735 1-817): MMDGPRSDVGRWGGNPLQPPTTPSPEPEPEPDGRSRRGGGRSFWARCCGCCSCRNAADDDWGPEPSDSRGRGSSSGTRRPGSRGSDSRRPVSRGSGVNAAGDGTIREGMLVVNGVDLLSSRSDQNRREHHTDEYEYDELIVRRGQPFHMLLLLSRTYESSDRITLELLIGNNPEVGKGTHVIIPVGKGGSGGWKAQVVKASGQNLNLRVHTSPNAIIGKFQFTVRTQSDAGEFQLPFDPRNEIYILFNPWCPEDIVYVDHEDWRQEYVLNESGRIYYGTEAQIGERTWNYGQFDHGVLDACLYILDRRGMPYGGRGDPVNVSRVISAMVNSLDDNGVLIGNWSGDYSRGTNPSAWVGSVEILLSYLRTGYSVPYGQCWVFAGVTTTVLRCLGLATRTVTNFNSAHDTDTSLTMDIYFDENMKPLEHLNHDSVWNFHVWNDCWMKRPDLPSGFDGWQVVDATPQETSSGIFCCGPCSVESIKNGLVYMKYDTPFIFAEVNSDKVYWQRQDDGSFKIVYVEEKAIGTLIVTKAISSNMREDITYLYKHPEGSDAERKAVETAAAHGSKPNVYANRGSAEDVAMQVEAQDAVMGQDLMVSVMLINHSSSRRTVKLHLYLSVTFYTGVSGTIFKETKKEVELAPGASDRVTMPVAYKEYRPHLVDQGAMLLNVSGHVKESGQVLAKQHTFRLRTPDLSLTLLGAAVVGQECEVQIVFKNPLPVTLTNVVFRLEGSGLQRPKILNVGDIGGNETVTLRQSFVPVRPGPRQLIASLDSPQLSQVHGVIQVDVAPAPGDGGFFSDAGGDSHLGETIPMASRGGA
The experiment in a line: glutamate dehydrogenase-coupled deamidation assay, substrate Cbz-Gln-Ser. Format: biochemical. Conditions: irreversible inhibition model, full progress curves.

Take `O=C(NC[C@@H]1CC(Br)=NO1)[C@@H]1C[C@@H](c2ccc(Cl)cc2)CN1C(=O)OCc1cnc2ccccc2c1` [Compound 14, (2S,4S)-quinolin-3-ylmethyl 2-((((S)-3-bromo-4,5-dihydroisoxazol-5-yl)methyl)carbamoyl)-4-(4-chlorophenyl)pyrrolidine-1-carboxylate]: the “kinh/Ki TG2” value on TG2 stood at 200 M⁻¹ s⁻¹. For the same compound, the “kinh/Ki TG1” value at TG1 came out at 257 M⁻¹ s⁻¹.
In the same order, the values of `O=C(N[C@@H]1C[C@@H](C(=O)NC[C@@H]2CC(Br)=NO2)N(C(=O)OCc2cnc3ccccc3c2)C1)c1ccc(O)cc1` [Compound 4, (2S,4R)-quinolin-3-ylmethyl 2-((((S)-3-bromo-4,5-dihydroisoxazol-5-yl)methyl)carbamoyl)-4-(4-hydroxybenzamido)pyrrolidine-1-carboxylate] are 940 M⁻¹ s⁻¹ and 522 M⁻¹ s⁻¹.
As for `O=C(N[C@@H]1C[C@@H](C(=O)NC[C@@H]2CC(Br)=NO2)N(C(=O)OCc2cnc3ccccc3c2)C1)c1cccc(O)c1` [Compound 3, (2S,4R)-quinolin-3-ylmethyl 2-((((S)-3-bromo-4,5-dihydroisoxazol-5-yl)methyl)carbamoyl)-4-(3-hydroxybenzamido)pyrrolidine-1-carboxylate], the “kinh/Ki TG2” value at TG2 was 603 M⁻¹ s⁻¹. Moreover, at TG1, the “kinh/Ki TG1” value was found to be 302 M⁻¹ s⁻¹.
In the case of `O=C(NC[C@@H]1CC(Br)=NO1)[C@@H]1C[C@@H](c2c[nH]c3ccc(F)cc23)CN1C(=O)OCc1cnc2ccccc2c1` [Compound 15, (2S,4S)-quinolin-3-ylmethyl 2-((((S)-3-bromo-4,5-dihydroisoxazol-5-yl)methyl)carbamoyl)-4-(5-fluoro-1H-indol-3-yl)pyrrolidine-1-carboxylate], the “kinh/Ki TG2” value at TG2 is 307 M⁻¹ s⁻¹. For the same compound, the “kinh/Ki TG1” value at TG1 came out at 800 M⁻¹ s⁻¹.
In the same order, the values of `O=C(N[C@@H]1C[C@@H](C(=O)NC[C@@H]2CC(Br)=NO2)N(C(=O)OCc2cnc3ccccc3c2)C1)c1cnccn1` [Compound 6, (2S,4R)-quinolin-3-ylmethyl 2-((((S)-3-bromo-4,5-dihydroisoxazol-5-yl)methyl)carbamoyl)-4-(pyrazine-2-carboxamido)pyrrolidine-1-carboxylate] are 262 M⁻¹ s⁻¹ and 200 M⁻¹ s⁻¹.
Taken in the same sequence, the figures for `O=C(N[C@@H]1C[C@@H](C(=O)NC[C@@H]2CC(Br)=NO2)N(C(=O)OCc2cnc3ccccc3c2)C1)c1ccccc1` [Compound 1, (2S,4R)-quinolin-3-ylmethyl 4-benzamido-2-((((S)-3-bromo-4,5-dihydroisoxazol-5-yl)methyl)carbamoyl)pyrrolidine-1-carboxylate] were 430 M⁻¹ s⁻¹ and 410 M⁻¹ s⁻¹.
In the case of `O=C(NC[C@@H]1CC(Br)=NO1)[C@@H]1C[C@@H](c2ccccc2O)CN1C(=O)OCc1cnc2ccccc2c1` [Compound 10, (2S,4S)-quinolin-3-ylmethyl 2-((((S)-3-bromo-4,5-dihydroisoxazol-5-yl)methyl)carbamoyl)-4-(2-hydroxyphenyl)pyrrolidine-1-carboxylate], at TG2, the “kinh/Ki TG2” value was 563 M⁻¹ s⁻¹. Further, the “kinh/Ki TG1” value at TG1 was found to be 492 M⁻¹ s⁻¹.
For the compound `O=C(N[C@@H]1C[C@@H](C(=O)NC[C@@H]2CC(Br)=NO2)N(C(=O)OCc2cnc3ccccc3c2)C1)c1ccccc1O` [Compound 2, (2S,4R)-quinolin-3-ylmethyl 2-((((S)-3-bromo-4,5-dihydroisoxazol-5-yl)methyl)carbamoyl)-4-(2-hydroxybenzamido)pyrrolidine-1-carboxylate], on TG2, the “kinh/Ki TG2” value turned out to be 618 M⁻¹ s⁻¹. The “kinh/Ki TG1” value on TG1 was found to be 452 M⁻¹ s⁻¹.
As for `O=C(NC[C@@H]1CC(Br)=NO1)[C@@H]1C[C@@H](c2cccc(Cl)c2)CN1C(=O)OCc1cnc2ccccc2c1` [Compound 13, (2S,4S)-quinolin-3-ylmethyl 2-((((S)-3-bromo-4,5-dihydroisoxazol-5-yl)methyl)carbamoyl)-4-(3-chlorophenyl)pyrrolidine-1-carboxylate], the “kinh/Ki TG2” value at TG2 worked out at 422 M⁻¹ s⁻¹. For the same compound, at TG1, the “kinh/Ki TG1” value stood at 695 M⁻¹ s⁻¹.
